From patent publication US20090023780A1 (priority 2000, published 2009) come the findings set out here.

This data set deals with Sprague-Dawley rats. The data set can be described thus: Phase 1: specific effects of gacyclidine on the nociceptive threshold in rats (modified Randall-Selitto test). Format: in vivo, rat. The following applies: for analgesic effect per se: 0.1 mg/kg. Here is the method: All the experiments are carried out on Sprague-Dawley rats weighing 350-400 g; each experimental phase is carried out according to a similar plan: each experimental phase is carried out on 6 groups of 12 rats including one group of control animals. The test adopted to measure the nociceptive threshold is the Randall-Selitto Test modified according to Kayser et al. (1990) (Kayser V., Basbaum A. I. and Guilbaud G.,
Deafferentation in the rat increase mechanical nociceptive threshold in the innervated limbs; Brain research ([…]), 508, 329-332), using a mechanical stimulus of increasing intensity (expressed in grams), the retained evoked response being the cry of the animal.
The general plan for an experimental phase is as follows: • arrival and housing of the animals: 4 days; • preparation of the animals allowing them to become familiar with the investigator and the experimental conditions and measurements in order to avoid any possibility of measurement bias being induced by stress: 14 days; • preparation and insertion of the catheters: 9 days; • post-operative rest (with antibiotic treatment) and determination of the stability of the experimental measurements (basic nociceptive threshold): 4 days; • testing of response to the different active ingredients: 9 days.
The 3 doses of gacyclidine retained: 0.1, 0.3 and 1 mg/kg, are injected by venous route using the catheter introduced into a jugular vein.
All the results are analyzed according to an ANOVA test.
Phase 1: study of the specific effects of gacyclidine on the nociceptive threshold in rats.
3 series of experiments each including 2 groups of animals of 12 rats are set up. • 1st series of experiments: • 1st group: the animals receive an injection of physiological saline solution. • 2nd group: the animals receive a dose of 0.1 mg/kg of gacyclidine.
2nd series of experiments: • 1st group: the animals receive an injection of physiological saline solution. • 2nd group: the animals receive a dose of 0.3 mg/kg of gacyclidine.
3rd series of experiments: • 1st group: the animals receive an injection of physiological saline solution. • 2nd group: the animals receive a dose of 1 mg/kg of gacyclidine.
All the animals in the 3 series of experiments are prepared during the same phase. The day of administration of the gacyclidine (or of the physiological saline solution) for each series is deferred by only 3 days in order to follow the evolution of the nociceptive threshold for several days following the administration of the pharmaceutical substances. The measurement of the nociceptive threshold is carried out over at least 4 hours after the injection of gacyclidine, at the rate of one measurement every 30 minutes then daily for at least one week.

Where [1] appears, read: gacyclidine alone, 0.1 mg/kg i.v.

Take “1-[cis-2-methyl-1-(2-thienyl)cyclohexyl]piperidine [gacyclidine]”: under “doses of 0.1 and 0.3 mg/kg”, the psychomotor effect entry is listed as “does not have any psychomotor effect”. Also, the “motor effect per se” value under setting [1] is listed as “neither analgesic effect nor motor effect”. Further, the “analgesic effect per se” value is listed as “neither analgesic effect nor motor effect” under setting [1] and “does not per se cause any analgesic effect” (gacyclidine alone, 0.1 mg/kg i.v., listed as thienylcyclohexylamine). Besides, the “duration of analgesic effect (nociceptive threshold)” value is 30 min (gacyclidine alone, 0.3 mg/kg i.v.) and “first hour” (gacyclidine alone, 1 mg/kg i.v.). Also, the motor effects entry (gacyclidine alone, 1 mg/kg i.v. (strongest dose used)) was “induces motor effects”.
